The experiment has as its system K562. In words: cells. The conditions noted are these: Homo sapiens, K562, 48 h.

The structures appear in SMILES notation.

Description: Antiproliferative activity against human K562 cells assessed as inhibition of cell growth incubated for 2 days by CCK8 assay

Broadly, the IC50 is the point on the concentration scale where inhibition reaches its midpoint. Compound `O=C1CCC(N2Cc3c(SCCCCCCN4CCN(C5CCN(c6ncc(C(=O)Nc7ccc(OC(F)(F)Cl)cc7)cc6-c6ccn[nH]6)CC5)CC4)cccc3C2=O)C(=O)N1` (stereo unspecified) gave an IC50 of 12 nM.

These data come from ChEMBL document CHEMBL5247625, “Discovery and characterization of novel potent BCR-ABL degraders by conjugating allosteric inhibitor” (Eur J Med Chem, 2022).
